# In patent US20240316047A1, “INHIBITORS OF RNA HELICASE DHX9 AND USES THEREOF” (ACCENT THERAPEUTICS, INC., priority 2022, published 2024):
# pIC50: −log10 of the molar value.
# Biological target: Human recombinant DHX9 protein (Homo sapiens (Human), UniProt Q08211)
# Assay: DHX9 ATPase assay (ADP-Glo)
# Type: biochemical
# Settings: not given
# Chain of Human recombinant DHX9 protein (Q08211 whole entry): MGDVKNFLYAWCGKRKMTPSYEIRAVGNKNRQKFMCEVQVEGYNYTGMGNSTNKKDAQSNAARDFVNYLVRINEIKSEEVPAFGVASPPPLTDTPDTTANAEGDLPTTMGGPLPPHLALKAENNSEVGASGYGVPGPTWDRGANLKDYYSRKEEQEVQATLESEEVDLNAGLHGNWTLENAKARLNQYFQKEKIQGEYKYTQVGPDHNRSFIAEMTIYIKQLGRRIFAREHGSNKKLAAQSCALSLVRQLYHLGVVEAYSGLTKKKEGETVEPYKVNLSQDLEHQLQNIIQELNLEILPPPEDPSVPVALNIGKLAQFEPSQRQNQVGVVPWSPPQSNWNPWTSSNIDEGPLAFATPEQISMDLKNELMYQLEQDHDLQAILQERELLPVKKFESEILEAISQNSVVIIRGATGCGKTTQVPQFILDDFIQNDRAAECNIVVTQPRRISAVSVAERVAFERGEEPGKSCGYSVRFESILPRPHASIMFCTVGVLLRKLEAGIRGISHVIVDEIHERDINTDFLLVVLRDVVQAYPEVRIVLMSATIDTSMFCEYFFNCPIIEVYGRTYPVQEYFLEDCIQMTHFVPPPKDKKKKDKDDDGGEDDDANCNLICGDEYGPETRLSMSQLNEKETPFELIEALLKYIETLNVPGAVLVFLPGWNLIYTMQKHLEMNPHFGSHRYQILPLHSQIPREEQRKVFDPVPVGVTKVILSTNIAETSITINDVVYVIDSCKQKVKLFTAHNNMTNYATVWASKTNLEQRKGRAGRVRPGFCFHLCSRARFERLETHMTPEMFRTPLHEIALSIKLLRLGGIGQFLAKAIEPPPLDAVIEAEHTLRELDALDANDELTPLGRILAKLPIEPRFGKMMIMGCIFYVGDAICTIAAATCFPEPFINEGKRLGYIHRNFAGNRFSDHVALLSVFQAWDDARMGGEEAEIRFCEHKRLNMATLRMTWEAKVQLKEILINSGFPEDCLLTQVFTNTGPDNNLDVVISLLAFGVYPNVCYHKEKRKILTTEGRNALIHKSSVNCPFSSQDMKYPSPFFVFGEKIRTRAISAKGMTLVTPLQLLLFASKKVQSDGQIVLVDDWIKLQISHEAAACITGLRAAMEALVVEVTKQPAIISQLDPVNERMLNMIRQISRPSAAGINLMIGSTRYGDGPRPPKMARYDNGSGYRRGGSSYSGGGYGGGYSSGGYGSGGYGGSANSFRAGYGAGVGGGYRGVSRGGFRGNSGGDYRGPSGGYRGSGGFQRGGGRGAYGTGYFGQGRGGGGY
row,SMILES,DHX9 Biochemical Max Inhibition [%]
1,CS(=O)(=O)Nc1cc(Cl)cc(NC(=O)c2cc(-c3ccc(F)cn3)n(CC(F)F)c2)c1 [Example 286],72.9
2,CC(O)c1cc(C(=O)Nc2cc(Cl)cc(NS(C)(=O)=O)c2)cn1-c1ccccn1 (stereo not shown) [Example 287],82.6
3,CS(=O)(=O)Nc1cc(Cl)cc(NC(=O)c2cc3cnccc3s2)c1 [Example 288],58.7
4,CS(=O)(=O)Nc1cc(Cl)cc(NC(=O)c2cc3ncccc3s2)c1 [Example 289],66.9
5,Cc1cncc2cc(C(=O)Nc3cc(Cl)cc(NS(C)(=O)=O)c3)sc12 [Example 290],59.7
6,COc1cc2cc(C(=O)Nc3cc(Cl)cc(NS(C)(=O)=O)c3)sc2cc1OC [Example 291],59.7
7,CS(=O)(=O)Nc1cc(Cl)cc(NC(=O)c2cc3cccnn3c2)c1 [Example 292],68.5
8,CS(=O)(=O)Nc1cc(Cl)cc(NC(=O)c2cc3ccc(Cl)cc3s2)c1 [Example 293],55
9,CS(=O)(=O)Nc1cc(Cl)cc(NC(=O)c2cc3ccc(F)cc3s2)c1 [Example 294],59
10,CS(=O)(=O)Nc1cc(Cl)cc(NC(=O)c2cc3cc(F)ccc3s2)c1 [Example 295],63.8
11,CS(=O)(=O)Nc1cc(Cl)cc(NC(=O)c2cc3c(F)cccc3s2)c1 [Example 296],69.9
12,CS(=O)(=O)Nc1cc(Cl)cc(NC(=O)c2cc3cccc(F)c3s2)c1 [Example 297],57
13,CS(=O)(=O)Nc1cc(Cl)cc(NC(=O)c2cc3cc(Cl)ccc3s2)c1 [Example 298],58.8
14,CS(=O)(=O)Nc1cc(Cl)cc(NC(=O)c2cc3ccc(Cl)cn3c2)c1 [Example 299],56.7
15,Cc1ccc2cc(C(=O)Nc3cc(Cl)cc(NS(C)(=O)=O)c3)cn2c1 [Example 300],58.5
16,CS(=O)(=O)Nc1cc(Cl)cc(NC(=O)c2cc3c(=O)[nH]ccn3c2)c1 [Example 301],69.5
17,CS(=O)(=O)Nc1cc(Cl)cc(NC(=O)c2cc3c(C(F)(F)F)cccn3c2)c1 [Example 302],54.6
18,COc1cccc2cc(C(=O)Nc3cc(Cl)cc(NS(C)(=O)=O)c3)sc12 [Example 303],57.2
19,Cc1cccc2cc(C(=O)Nc3cc(Cl)cc(NS(C)(=O)=O)c3)cn12 [Example 304],59.1
20,CS(=O)(=O)Nc1cc(Cl)cc(NC(=O)c2cc3c(F)cccn3c2)c1 [Example 305],63.8
21,CN1CCC(n2cc(C(=O)Nc3cc(Cl)cc(NS(C)(=O)=O)c3)cn2)CC1=O (stereo not shown) [Example 307],70.4
22,CS(=O)(=O)Nc1cc(Cl)cc(NC(=O)c2cnn(CCc3ccccc3)c2)c1 [Example 308],60.6
23,CS(=O)(=O)Nc1cc(Cl)cc(NC(=O)c2cnn(C3CCCC3)c2)c1 [Example 309],60.8
24,CC(=O)NC1CC2(C1)CC(n1cc(C(=O)Nc3cc(Cl)cc(NS(C)(=O)=O)c3)cn1)C2 (stereo not shown) [Example 310],70.3
25,CN1CC2(CC(n3cc(C(=O)Nc4cc(Cl)cc(NS(C)(=O)=O)c4)cn3)C2)C1 [Example 311],77.7
26,CS(=O)(=O)Nc1cc(Cl)cc(NC(=O)c2cnn(C3CC4(C3)CN(CC(F)(F)F)C4)c2)c1 [Example 312],69.2
27,CC(=O)N1CC2(CC(n3cc(C(=O)Nc4cc(Cl)cc(NS(C)(=O)=O)c4)cn3)C2)C1 [Example 313],63.6

row,SMILES,DHX9 Biochemical Max Inhibition [%]
1,CC1(C)CC(n2cc(C(=O)Nc3cc(Cl)cc(NS(C)(=O)=O)c3)cn2)CCN1 (stereo not shown) [Example 315],66.9
2,CS(=O)(=O)Nc1cc(Cl)cc(NC(=O)c2cnn(C3CCN(CC(F)(F)F)CC3)c2)c1 [Example 316],66.6
3,CC(=O)N1CCC(n2cc(C(=O)Nc3cc(Cl)cc(NS(C)(=O)=O)c3)cn2)CC1 [Example 317],63.8
4,CC(C)(C)OC(=O)NC1CC2(C1)CC(n1cc(C(=O)Nc3cc(Cl)cc(NS(C)(=O)=O)c3)cn1)C2 (stereo not shown) [Example 318],64.4
5,CS(=O)(=O)Nc1cc(Cl)cc(NC(=O)c2cnn(C3CC4(CC(N)C4)C3)c2)c1 (stereo not shown) [Example 319],70.1
6,Cc1cc(C(=O)Nc2cc(Cl)cc(NS(C)(=O)=O)c2)cn1-c1ncc(N2CCOCC2)cc1F [Example 320],72.2
7,COc1cccc2sc(C(=O)Nc3cc(Cl)cc(NS(C)(=O)=O)c3)cc12 [Example 321],79.2
8,Cc1cn2cc(C(=O)Nc3cc(Cl)cc(NS(C)(=O)=O)c3)cc2c(C)n1 [Example 322],65.6
9,CS(=O)(=O)Nc1cc(Cl)cc(NC(=O)c2cc3c(C(F)(F)F)cccc3s2)c1 [Example 323],58.2
10,CS(=O)(=O)Nc1cc(Cl)cc(NC(=O)c2cc3c(F)c(F)ccc3s2)c1 [Example 324],63.1
11,CS(=O)(=O)Nc1cc(Cl)cc(NC(=O)c2cc3c(F)ccc(F)c3s2)c1 [Example 325],63.9
12,CS(=O)(=O)Nc1cc(Cl)cc(NC(=O)c2cc3cc(C(F)(F)F)ccc3s2)c1 [Example 326],64.5
13,COc1ccc2cc(C(=O)Nc3cc(Cl)cc(NS(C)(=O)=O)c3)sc2c1 [Example 327],63.3
14,Cc1cc(C)c2cc(C(=O)Nc3cc(Cl)cc(NS(C)(=O)=O)c3)cn2c1 [Example 328],67.6
15,Cc1cccn2cc(C(=O)Nc3cc(Cl)cc(NS(C)(=O)=O)c3)cc12 [Example 329],66.5
16,CS(=O)(=O)Nc1cc(Cl)cc(NC(=O)c2cc3cnccn3c2)c1 [Example 330],61.9
17,Cc1ccc2sc(C(=O)Nc3cc(Cl)cc(NS(C)(=O)=O)c3)cc2c1 [Example 331],57.8
18,CS(=O)(=O)Nc1cc(Cl)cc(NC(=O)c2cc3c(Cl)cccc3s2)c1 [Example 332],61.5
19,Cc1cccnc1-c1cc(C(=O)Nc2cc(F)cc(NS(C)(=O)=O)c2)sc1C [Example 333],78.1
20,Cc1cccnc1-c1csc(C(=O)Nc2cc(F)cc(NS(C)(=O)=O)c2)c1 [Example 334],81.5
21,CCOc1cnc(-c2cc(C(=O)Nc3cc(Cl)cc(NS(C)(=O)=O)c3)sc2C)nc1 [Example 335],79
22,Cc1sc(C(=O)Nc2cc(Cl)cc(NS(C)(=O)=O)c2)cc1-c1ncc(F)cn1 [Example 336],84
23,CS(=O)(=O)Nc1cc(Cl)cc(NC(=O)c2cc(-c3ncc(F)cn3)cs2)c1 [Example 338],78
24,CCOc1ccc(-c2csc(C(=O)Nc3cc(Cl)cc(NS(C)(=O)=O)c3)c2)nc1 [Example 339],71
25,COc1cnc(-c2csc(C(=O)Nc3cc(Cl)cc(NS(C)(=O)=O)c3)c2)nc1 [Example 340],65.6
26,COc1cnc(-c2cc(C(=O)Nc3cc(Cl)cc(NS(C)(=O)=O)c3)sc2C)nc1 [Example 341],83.05
27,CCOc1cnc(-c2csc(C(=O)Nc3cc(Cl)cc(NS(C)(=O)=O)c3)c2)nc1 [Example 342],73.6

# Same assay, conditions: read-out: DHX9 Biochemical Inflection Point
row,SMILES,pIC50
1,CS(=O)(=O)Nc1cc(Cl)cc(NC(=O)c2cc(-c3ccc(F)cn3)n(CC(F)F)c2)c1 [Example 286],6.62
2,CC(O)c1cc(C(=O)Nc2cc(Cl)cc(NS(C)(=O)=O)c2)cn1-c1ccccn1 (stereo not shown) [Example 287],7.72
3,CS(=O)(=O)Nc1cc(Cl)cc(NC(=O)c2cc3cnccc3s2)c1 [Example 288],6.88
4,CS(=O)(=O)Nc1cc(Cl)cc(NC(=O)c2cc3ncccc3s2)c1 [Example 289],7.09
5,Cc1cncc2cc(C(=O)Nc3cc(Cl)cc(NS(C)(=O)=O)c3)sc12 [Example 290],5.25
6,COc1cc2cc(C(=O)Nc3cc(Cl)cc(NS(C)(=O)=O)c3)sc2cc1OC [Example 291],6.84
7,CS(=O)(=O)Nc1cc(Cl)cc(NC(=O)c2cc3cccnn3c2)c1 [Example 292],7.12
8,CS(=O)(=O)Nc1cc(Cl)cc(NC(=O)c2cc3ccc(Cl)cc3s2)c1 [Example 293],7.06
9,CS(=O)(=O)Nc1cc(Cl)cc(NC(=O)c2cc3ccc(F)cc3s2)c1 [Example 294],5.79
10,CS(=O)(=O)Nc1cc(Cl)cc(NC(=O)c2cc3cc(F)ccc3s2)c1 [Example 295],6.51
11,CS(=O)(=O)Nc1cc(Cl)cc(NC(=O)c2cc3c(F)cccc3s2)c1 [Example 296],6.90
12,CS(=O)(=O)Nc1cc(Cl)cc(NC(=O)c2cc3cccc(F)c3s2)c1 [Example 297],6.00
13,CS(=O)(=O)Nc1cc(Cl)cc(NC(=O)c2cc3cc(Cl)ccc3s2)c1 [Example 298],5.38
14,CS(=O)(=O)Nc1cc(Cl)cc(NC(=O)c2cc3ccc(Cl)cn3c2)c1 [Example 299],6.47
15,Cc1ccc2cc(C(=O)Nc3cc(Cl)cc(NS(C)(=O)=O)c3)cn2c1 [Example 300],6.88
16,CS(=O)(=O)Nc1cc(Cl)cc(NC(=O)c2cc3c(=O)[nH]ccn3c2)c1 [Example 301],7.42
17,CS(=O)(=O)Nc1cc(Cl)cc(NC(=O)c2cc3c(C(F)(F)F)cccn3c2)c1 [Example 302],6.19
18,COc1cccc2cc(C(=O)Nc3cc(Cl)cc(NS(C)(=O)=O)c3)sc12 [Example 303],5.40
19,Cc1cccc2cc(C(=O)Nc3cc(Cl)cc(NS(C)(=O)=O)c3)cn12 [Example 304],6.40
20,CS(=O)(=O)Nc1cc(Cl)cc(NC(=O)c2cc3c(F)cccn3c2)c1 [Example 305],7.02
21,CN1CCC(n2cc(C(=O)Nc3cc(Cl)cc(NS(C)(=O)=O)c3)cn2)CC1=O (stereo not shown) [Example 307],6.84
22,CS(=O)(=O)Nc1cc(Cl)cc(NC(=O)c2cnn(CCc3ccccc3)c2)c1 [Example 308],6.43
23,CS(=O)(=O)Nc1cc(Cl)cc(NC(=O)c2cnn(C3CCCC3)c2)c1 [Example 309],6.79
24,CC(=O)NC1CC2(C1)CC(n1cc(C(=O)Nc3cc(Cl)cc(NS(C)(=O)=O)c3)cn1)C2 (stereo not shown) [Example 310],6.99
25,CN1CC2(CC(n3cc(C(=O)Nc4cc(Cl)cc(NS(C)(=O)=O)c4)cn3)C2)C1 [Example 311],7.41
26,CS(=O)(=O)Nc1cc(Cl)cc(NC(=O)c2cnn(C3CC4(C3)CN(CC(F)(F)F)C4)c2)c1 [Example 312],6.66

row,SMILES,pIC50
1,CC(=O)N1CC2(CC(n3cc(C(=O)Nc4cc(Cl)cc(NS(C)(=O)=O)c4)cn3)C2)C1 [Example 313],6.83
2,CC1(C)CC(n2cc(C(=O)Nc3cc(Cl)cc(NS(C)(=O)=O)c3)cn2)CCN1 (stereo not shown) [Example 315],7.12
3,CS(=O)(=O)Nc1cc(Cl)cc(NC(=O)c2cnn(C3CCN(CC(F)(F)F)CC3)c2)c1 [Example 316],6.69
4,CC(=O)N1CCC(n2cc(C(=O)Nc3cc(Cl)cc(NS(C)(=O)=O)c3)cn2)CC1 [Example 317],6.57
5,CS(=O)(=O)Nc1cc(Cl)cc(NC(=O)c2cnn(C3CC4(CC(N)C4)C3)c2)c1 (stereo not shown) [Example 319],7.24
6,Cc1cc(C(=O)Nc2cc(Cl)cc(NS(C)(=O)=O)c2)cn1-c1ncc(N2CCOCC2)cc1F [Example 320],7.98
7,COc1cccc2sc(C(=O)Nc3cc(Cl)cc(NS(C)(=O)=O)c3)cc12 [Example 321],7.87
8,Cc1cn2cc(C(=O)Nc3cc(Cl)cc(NS(C)(=O)=O)c3)cc2c(C)n1 [Example 322],6.67
9,CS(=O)(=O)Nc1cc(Cl)cc(NC(=O)c2cc3c(C(F)(F)F)cccc3s2)c1 [Example 323],6.55
10,CS(=O)(=O)Nc1cc(Cl)cc(NC(=O)c2cc3c(F)c(F)ccc3s2)c1 [Example 324],6.79
11,CS(=O)(=O)Nc1cc(Cl)cc(NC(=O)c2cc3c(F)ccc(F)c3s2)c1 [Example 325],6.23
12,CS(=O)(=O)Nc1cc(Cl)cc(NC(=O)c2cc3cc(C(F)(F)F)ccc3s2)c1 [Example 326],5.09
13,COc1ccc2cc(C(=O)Nc3cc(Cl)cc(NS(C)(=O)=O)c3)sc2c1 [Example 327],6.58
14,Cc1cc(C)c2cc(C(=O)Nc3cc(Cl)cc(NS(C)(=O)=O)c3)cn2c1 [Example 328],6.37
15,Cc1cccn2cc(C(=O)Nc3cc(Cl)cc(NS(C)(=O)=O)c3)cc12 [Example 329],6.86
16,CS(=O)(=O)Nc1cc(Cl)cc(NC(=O)c2cc3cnccn3c2)c1 [Example 330],7.06
17,Cc1ccc2sc(C(=O)Nc3cc(Cl)cc(NS(C)(=O)=O)c3)cc2c1 [Example 331],6.71
18,CS(=O)(=O)Nc1cc(Cl)cc(NC(=O)c2cc3c(Cl)cccc3s2)c1 [Example 332],5.32
19,Cc1cccnc1-c1cc(C(=O)Nc2cc(F)cc(NS(C)(=O)=O)c2)sc1C [Example 333],7.45
20,Cc1cccnc1-c1csc(C(=O)Nc2cc(F)cc(NS(C)(=O)=O)c2)c1 [Example 334],7.96
21,CCOc1cnc(-c2cc(C(=O)Nc3cc(Cl)cc(NS(C)(=O)=O)c3)sc2C)nc1 [Example 335],7.97
22,Cc1sc(C(=O)Nc2cc(Cl)cc(NS(C)(=O)=O)c2)cc1-c1ncc(F)cn1 [Example 336],8.02
23,CS(=O)(=O)Nc1cc(Cl)cc(NC(=O)c2cc(-c3ncc(F)cn3)cs2)c1 [Example 338],7.80
24,CCOc1ccc(-c2csc(C(=O)Nc3cc(Cl)cc(NS(C)(=O)=O)c3)c2)nc1 [Example 339],7.97
25,COc1cnc(-c2cc(C(=O)Nc3cc(Cl)cc(NS(C)(=O)=O)c3)sc2C)nc1 [Example 341],8.21
26,CCOc1cnc(-c2csc(C(=O)Nc3cc(Cl)cc(NS(C)(=O)=O)c3)c2)nc1 [Example 342],7.48
